Tested on: 439559-082-T-J2-PDC spheroid viability
Experiment: Anticancer human tumor 439559-082-T-J2-PDC patient-derived colon adenocarcinoma cell line growth inhibition [POLQ]
Details: spheroids with HUVEC and MSC; for IC50: curve of first compound; for viability, T/C: stronger effect = lower value
In short: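 PDC + HUVEC + MSC complex spheroids; POLQ inhibitors ± partner drugs; top conc. at/near clinical Cmax, else 10 microM (SN-38 1 microM), half-log dilutions; 37 degrees C, 5% CO2.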

[1] = second compound 0.0316 µM, first compound 0.00316 µM
[2] = second compound 0.0316 µM, first compound 0.01 µM
[3] = second compound 0.0316 µM, first compound 0.0316 µM
[4] = second compound 0.0316 µM, first compound 0.1 µM
[5] = second compound 0.1 µM, first compound 0.00316 µM
[6] = second compound 0.1 µM, first compound 0.01 µM
[7] = second compound 0.1 µM, first compound 0.0316 µM
[8] = second compound 0.1 µM, first compound 0.1 µM
[9] = second compound 0.316 µM, first compound 0.00316 µM
[10] = second compound 0.316 µM, first compound 0.01 µM
[11] = second compound 0.316 µM, first compound 0.0316 µM
[12] = second compound 0.316 µM, first compound 0.1 µM
[13] = second compound 1 µM, first compound 0.00316 µM
[14] = second compound 1 µM, first compound 0.01 µM
[15] = second compound 1 µM, first compound 0.0316 µM
[16] = second compound 1 µM, first compound 0.1 µM
[17] = second compound 3.16 µM, first compound 0.00316 µM
[18] = second compound 3.16 µM, first compound 0.01 µM
[19] = second compound 3.16 µM, first compound 0.0316 µM
[20] = second compound 3.16 µM, first compound 0.1 µM
[21] = second compound 10 µM, first compound 0.00316 µM
[22] = second compound 10 µM, first compound 0.01 µM
[23] = second compound 10 µM, first compound 0.0316 µM
[24] = second compound 10 µM, first compound 0.1 µM
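Note: spheroids exposed to compounds for seven days before readout.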
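Throughout, for viability, T/C: 100% = DMSO vehicle control viability.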

## CC[C@@]1(O)C(=O)OCc2c1cc1n(c2=O)Cc2cc3c(CN(C)C)c(O)ccc3nc2-1 + Nc1ccc(C#CCN(C(=O)Cc2ncc(C(F)(F)F)cc2C(F)(F)F)c2ccc(F)cc2)nn1
Second compound 0.0316 µM
  IC50: > 100 nM
Second compound 0.1 µM
  IC50: > 100 nM
Second compound 0.316 µM
  IC50: > 100 nM
Second compound 1 µM
  IC50: > 100 nM
Second compound 3.16 µM
  IC50: > 100 nM
Second compound 10 µM
  IC50: > 100 nM
Second compound 0.0316 µM, first compound 0.000316 µM
  viability, T/C: 104%
Second compound 0.0316 µM, first compound 0.001 µM
  viability, T/C: 97%
[1]
  viability, T/C: 81.4%
[2]
  viability, T/C: 108%
[3]
  viability, T/C: 85.8%
[4]
  viability, T/C: 82.8%
Second compound 0.1 µM, first compound 0.000316 µM
  viability, T/C: 107%
Second compound 0.1 µM, first compound 0.001 µM
  viability, T/C: 103%
[5]
  viability, T/C: 96.3%
[6]
  viability, T/C: 105%
[7]
  viability, T/C: 85.9%
[8]
  viability, T/C: 76.3%
Second compound 0.316 µM, first compound 0.000316 µM
  viability, T/C: 108%
Second compound 0.316 µM, first compound 0.001 µM
  viability, T/C: 110%
[9]
  viability, T/C: 101%
[10]
  viability, T/C: 104%
[11]
  viability, T/C: 93.6%
[12]
  viability, T/C: 79%
Second compound 1 µM, first compound 0.000316 µM
  viability, T/C: 86.7%
Second compound 1 µM, first compound 0.001 µM
  viability, T/C: 98.6%
[13]
  viability, T/C: 83.8%
[14]
  viability, T/C: 97.9%
[15]
  viability, T/C: 88.7%
[16]
  viability, T/C: 75.4%
Second compound 3.16 µM, first compound 0.000316 µM
  viability, T/C: 114%
Second compound 3.16 µM, first compound 0.001 µM
  viability, T/C: 113%
[17]
  viability, T/C: 92%
[18]
  viability, T/C: 88.4%
[19]
  viability, T/C: 88%
[20]
  viability, T/C: 89.9%
Second compound 10 µM, first compound 0.000316 µM
  viability, T/C: 91.8%
Second compound 10 µM, first compound 0.001 µM
  viability, T/C: 94.8%
[21]
  viability, T/C: 87.9%
[22]
  viability, T/C: 90.2%
[23]
  viability, T/C: 86%
[24]
  viability, T/C: 75.9%

## C=CCn1c(=O)c2cnc(Nc3ccc(N4CCN(C)CC4)cc3)nc2n1-c1cccc(C(C)(C)O)n1 + Cc1cccc(N(C)C(=O)C2C(O)CCN2c2nc(C)cc(C(F)(F)F)c2C#N)c1
Second compound 0.0316 µM
  IC50: > 1000 nM
Second compound 0.1 µM
  IC50: > 1000 nM
Second compound 0.316 µM
  IC50: > 1000 nM
Second compound 1 µM
  IC50: > 1000 nM
Second compound 3.16 µM
  IC50: > 1000 nM
Second compound 10 µM
  IC50: > 1000 nM
[1]
  viability, T/C: 104%
[2]
  viability, T/C: 96.8%
[3]
  viability, T/C: 93.3%
[4]
  viability, T/C: 92.1%
Second compound 0.0316 µM, first compound 0.316 µM
  viability, T/C: 83.7%
Second compound 0.0316 µM, first compound 1 µM
  viability, T/C: 78.9%
[5]
  viability, T/C: 98%
[6]
  viability, T/C: 103%
[7]
  viability, T/C: 107%
[8]
  viability, T/C: 88.3%
Second compound 0.1 µM, first compound 0.316 µM
  viability, T/C: 93.1%
Second compound 0.1 µM, first compound 1 µM
  viability, T/C: 84.1%
[9]
  viability, T/C: 104%
[10]
  viability, T/C: 104%
[11]
  viability, T/C: 85.8%
[12]
  viability, T/C: 95.3%
Second compound 0.316 µM, first compound 0.316 µM
  viability, T/C: 100%
Second compound 0.316 µM, first compound 1 µM
  viability, T/C: 71%
[13]
  viability, T/C: 86.3%
[14]
  viability, T/C: 99.8%
[15]
  viability, T/C: 102%
[16]
  viability, T/C: 102%
Second compound 1 µM, first compound 0.316 µM
  viability, T/C: 93.4%
Second compound 1 µM, first compound 1 µM
  viability, T/C: 75.3%
[17]
  viability, T/C: 94.6%
[18]
  viability, T/C: 105%
[19]
  viability, T/C: 91.7%
[20]
  viability, T/C: 95.4%
Second compound 3.16 µM, first compound 0.316 µM
  viability, T/C: 96.5%
Second compound 3.16 µM, first compound 1 µM
  viability, T/C: 76.8%
[21]
  viability, T/C: 100%
[22]
  viability, T/C: 90.6%
[23]
  viability, T/C: 99.3%
[24]
  viability, T/C: 97.8%
Second compound 10 µM, first compound 0.316 µM
  viability, T/C: 93.5%
Second compound 10 µM, first compound 1 µM
  viability, T/C: 74.3%
